Tests used:
[1] = test system: Jurkat T cells transfected with the candidate PSR; test: Binding and phagocytosis of symmetric red cell ghosts; assay type: cell-based, human; conditions: for binding of symmetric red cell ghosts: FIG. 5; for binding and phagocytosis of symmetric red cell ghosts: stably transfected Jurkat T cells, FIG. 5 legend
Description: A human EST clone (Accession No. R24727) containing the full length gene was obtained through the IMAGE Consortium via ATCC (Manassas, Va.). The insert was subcloned into pcDNA 3.1/neo at Hind III/Not I sites (Invitrogen, Carlsbad, Calif.). M12.C3 cells were transfected in OptiMEM I medium using Lipofectamine Plus (both from GibcoBRL Life Science Technologies, Grand Island, N.Y.). Jurkat T cells were transfected in OptiMEM I medium using DMRIE C Jurkat T cells were stimulated with PHA alone (1 μg/ml) or with PMA (1.6 nM) and PHA to induce expression of the receptor. After 48 hrs, the cells were analyzed for expression of the PS receptor using mAb 217 and flow cytometry. For stable transfections, Jurkat T cells were selected in G418 (1 mg/ml). Surface expression of the receptor was induced by treatment of the stably transfected cells with 160 nM PMA in the absence of G418 for 48 hours. The candidate PSR was also inserted into pRc/RSV (PharMingen, San Diego, Calif.), or pUP (provided by Brian Schaefer), and transfected into Jurkat T cells or M12.C3 cells by electroporation.
Human red blood cells were lysed in 1:50 PBS containing 1 mM CaCl2 on ice for one hour; they were resealed at 37° C. for 30 minutes by addition of 5×PBS. Exposure of phosphatidylserine was confirmed by binding of annexin-FITC, assessed by flow cytometry.

HMDM = test: Uptake of apoptotic cells by HMDM; assay type: cell-based, human; conditions: control agents
Description: Human monocytes were obtained from normal donors, and cultured in X-Vivo 10 (BioWhitaker) containing 10% human serum. The differentiated macrophages (HMDM) were used at 7 days of culture. Mouse bone-marrow derived macrophages were derived by culturing bone marrow cells in M-CSF for 5-7 days.
Macrophages, fibroblasts, or epithelial cells were preincubated with 100 μM liposomes (containing 50:50 molar ratio of PS:PC or PI:PC), 1 mM RGDS or RGES, undiluted hybridoma supernatants containing mAb 217 or mAb 284 (for HMDM) or 100 μg/ml purified mAb 217, or 100 μg/ml isotype controls for 30 minutes prior to adding apoptotic Jurkat T cells at ratio of 5:1 target:phagocyte. Apoptosis was induced in Jurkat T cell by UV irradiation as described (Fadok et al., J Clin Invest 101:890-898 (1998)). THP-1 cells were stimulatedwith PMA (160 nM) for 72 hours to induce a macrophage phenotype, the ability to adhere, and the ability to take up apoptotic cells. After 1 hr, the phagocytes were washed and fixed for light microscopic evaluation of uptake. […] Aliquots were removed and assessed for binding and phagocytosis by light microscopy as described (Fadok et al., J Immunol 148:2207-2216 (1992); Fadok et al., J Immunol 149:4029-4035 (1992); Fadok et al., J Immunol 151:4274-4285 (1993); Fadok et al., J Immunol 161:6250-6257 (1998)). […]

Row | Molecule | binding of symmetric red cell ghosts [1] | binding and phagocytosis of symmetric red cell ghosts [1] | effect on uptake of apoptotic cells by HMDM (HMDM)
1 | N[C@@H](COP(=O)(O)O)C(=O)O [phospho-L-serine] | inhibited | inhibited stereospecifically | –
2 | N[C@H](COP(=O)(O)O)C(=O)O [phospho-D-serine] | not | not | –
3 | RGES | – | – | no effect
